Literature values as cited in patent publication US8506359B2, “Aqueous dispersion for chemical mechanical polishing and chemical mechanical polishing method” (JSR Corporation, priority 2008, dated 2013).

Conditions: 25° C.; second carboxyl group for two carboxyl groups, third carboxyl group for three or more

Structure (SMILES)	pKa
O=C(O)C1CCCCCCC1C(=O)O (stereo not drawn) [1,2-Cyclooctanedicarboxylic acid (cis), 1,2-Cyclooctanedicarboxylic acid]	7.34
O=C(O)C1CCCCCCC1C(=O)O (stereo not drawn) [1,2-Cyclooctanedicarboxylic acid (trans), 1,2-Cyclooctanedicarboxylic acid]	6.24
O=C(O)C1CCCC1C(=O)O (stereo not drawn) [1,2-Cyclopentanedicarboxylic acid (cis), 1,2-Cyclopentanedicarboxylic acid]	6.57

Now from value to compound:

pKa	Structure (SMILES)
7.60	O=C(O)C1CCCCCC1C(=O)O (stereo not drawn) [1,2-Cycloheptanedicarboxylic acid (cis), 1,2-Cycloheptanedicarboxylic acid]
6.18	O=C(O)C1CCCCCC1C(=O)O (stereo not drawn) [1,2-Cycloheptanedicarboxylic acid (trans)]
5.99	O=C(O)C1CCCC1C(=O)O (stereo not drawn) [1,2-Cyclopentanedicarboxylic acid (trans)]
